In patent US20180036270A1, “A METHOD OF PROTECTING AGAINST CARBONYL STRESS INDUCED ISCHEMIA-REPERFUSION INJURY IN THE DIABETIC BRAIN VIA ADMINISTRATION OF N-ACETYLCYSTEINE” (Board of Supervisors of Louisiana State University and …, priority 2015, published 2018):

How the values were obtained:
[1] = system: brain GSH and cysteine contents; test: Brain GSH and cysteine by HPLC; type: in vivo, mouse; conditions: vehicle mice given BSO, inhibition of GSH synthesis
Source text: Four-week-old male C57BL/6J mice, weighing 18-20 g, were purchased from Jackson Laboratory. These mice were maintained at the Animal Facility of the Louisiana State University Health Sciences Center—Shreveport. Animal care and use in the experiments follow the guidelines in the Guide for the Care and Use of Laboratory Animals, published by the US National Institutes of Health. Following adaptation for 1 week, the mice were divided randomly into 4 groups: non-treated sham operation group (NT-sham group, n=6), non-treated I/R group (NT-I/R group, n=5), vehicle I/R group (Veh-I/R group, n=24), and streptozotocin I/R group (STZ-I/R group, n=19). […] On day 7, mice whose plasma glucose was more than 300 mg/dl were deemed to be diabetic. From diabetes onset at week 1, a group of diabetic mice were given 0.2 mM NAC in the drinking water for 3 weeks (n=3; a total of 4 weeks diabetes, 3 weeks NAC) or 1 week (n=9; a total of 2 weeks diabetes, 1 week NAC). Veh-I/R mice were injected with citrate buffer for consecutive 5 days, and a group of Veh-treated mice were given 0.2 mM NAC for 2 weeks in the drinking water before the ischemia operation (Veh+NAC group, n=8). Another Veh-treated mice were injected (intraperitoneally, 12 hr interval) with 0.5M BSO 24 h before the ischemia operation and during the 24 h reperfusion period (Veh+BSO group, n=10). All mice were 9 weeks old at sacrifice.
Tissue contents of GSH, cysteine and γGC were determined by high-performance liquid chromatography (HPLC). […] Separation of GSH, cysteine and γGC derivatives whose peaks were detected at 365 nm wavelength was performed on a 250×4.6-mm Alltech Lichrosorb NH2 10 μm anion-exchange column. GSH, cysteine and γGC contents were quantified by comparison to standards derivatized in the same manner. Protein pellets were dissolved in 1 M NaOH for protein quantitation and GSH, cysteine and γGC concentrations were expressed as nanomoles per mg protein.

[2] = molecular target: T1, glutamate cysteine ligase (GCL) (Homo sapiens, UniProt P48506); conditions: after brain ischemia/reperfusion, in the presence of BSO; cited from earlier work
T1 sequence (P48506 1-637): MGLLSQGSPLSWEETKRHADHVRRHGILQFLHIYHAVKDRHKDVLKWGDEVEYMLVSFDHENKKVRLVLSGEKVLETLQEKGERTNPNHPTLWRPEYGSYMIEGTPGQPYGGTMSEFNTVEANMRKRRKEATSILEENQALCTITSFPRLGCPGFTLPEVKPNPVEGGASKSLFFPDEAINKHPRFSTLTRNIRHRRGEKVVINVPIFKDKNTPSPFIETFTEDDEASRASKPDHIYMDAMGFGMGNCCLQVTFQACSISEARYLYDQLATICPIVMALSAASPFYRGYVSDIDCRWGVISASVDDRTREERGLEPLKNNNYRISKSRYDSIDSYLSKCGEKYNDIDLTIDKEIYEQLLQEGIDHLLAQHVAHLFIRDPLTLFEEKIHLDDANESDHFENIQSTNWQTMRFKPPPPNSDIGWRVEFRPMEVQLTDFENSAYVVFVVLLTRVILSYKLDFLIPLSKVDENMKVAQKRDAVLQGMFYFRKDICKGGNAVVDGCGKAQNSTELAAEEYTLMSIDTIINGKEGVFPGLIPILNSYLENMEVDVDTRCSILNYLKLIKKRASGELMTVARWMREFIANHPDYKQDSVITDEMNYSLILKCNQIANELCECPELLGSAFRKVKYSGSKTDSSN
T1 sequence (P48507 1-274 partner): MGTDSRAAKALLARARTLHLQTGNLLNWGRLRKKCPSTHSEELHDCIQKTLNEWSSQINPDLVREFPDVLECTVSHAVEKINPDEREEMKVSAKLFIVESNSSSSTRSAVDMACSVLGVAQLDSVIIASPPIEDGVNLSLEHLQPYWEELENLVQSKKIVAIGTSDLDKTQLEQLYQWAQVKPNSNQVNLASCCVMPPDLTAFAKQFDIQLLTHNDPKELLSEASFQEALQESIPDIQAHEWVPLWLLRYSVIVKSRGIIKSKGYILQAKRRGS

[3] = system: human brain microvascular endothelial cell; test: Endothelial barrier permeability by transendothelial electrical resistance; type: cell-based; conditions: MG alone
Experimental: Moreover, treatment with 100 μM MG in rat thoracic aortic rings for 24 h decreases acetylcholine-induced vascular relaxation via a reduction in p-eNOS (Ser1177) and p-AMPKα (Thr172). MG can reduce endothelial angiogenesis through RAGE-mediated, ONOO(^−)-dependent and autophagy-induced VEGFR2 degradation. […] This is exacerbated by GSH synthesis inhibition and prevented by NAC. The enhanced MG concentration in diabetic patients can also directly contribute to the platelet dysfunction associated with diabetes. Platelet dysfunction is characterized by hyperaggregability and reduced thrombus stability via potentiating thrombin-induced platelet aggregation and dense granule release, but inhibiting platelet spreading on fibronectin and collagen. Given that endothelial dysfunction and enhanced platelet activation could promote stroke, these studies indicate that MG can contribute to ischemic brain injury.

[4] = system: rat thoracic aortic rings; conditions: 100 μM MG for 24 h; cited from earlier work
Akita diabetic mouse = test: Akita model: platelet-neutrophil aggregates and thrombosis onset and cessation; type: in vivo; conditions: Akita diabetic mice, insulin treatment
Source text: FIGS. 28A-28C are three bar graphs showing percent platelet-neutrophil aggregate formation (FIG. 28A), time to onset of thrombosis (FIG. 28B), and time to cessation of thrombosis (FIG. 28C) for Akita non-diabetic mouse, Akita diabetic mouse, Akita diabetic mouse plus insulin, and Akita diabetic mouse plus insulin and NAC; and
Akita model: like STZ model, shown in FIGS. 28A-28C percent platelet-neutrophil aggregate formation is increased, and time to onset and cessation in thrombosis are accelerated in arterioles and venules. Again this reiterates that the effects of diabetes may be “global” rather than confined to one type/cause of diabetes. […] The data evidences that glucose control, which is the current treatment, is not completely effective and that co-treatment with NAC is very effective. […] It appears that insulin and NAC are additive/synergistic.

Compound: CCCCS(=N)(=O)CCC(N)C(=O)O [BSO, L-buthionine sulfoximine]
- brain cysteine levels [1]: higher free cysteine levels
- brain infarction and edema [2]: exacerbated further

Compound: CC(=O)C=O [MG, Methylglyoxal]
- endothelial barrier permeability (loss of transendothelial electrical resistance) [3]: increase human brain microvascular endothelial cell barrier permeability
- acetylcholine-induced vascular relaxation [4]: decreases

Compound: insulin
- platelet-neutrophil aggregate formation (Akita diabetic mouse): reversal
- thrombosis cessation time (time to complete occlusion of the vessel) (Akita diabetic mouse): did not correct
- thrombosis onset time in arterioles (Akita diabetic mouse): reversal
- thrombosis onset time in venules (Akita diabetic mouse): did not correct
